Our source for the IC50 values is US9422293B2 (priority 2006, dated 2016).

Where a name gives a salt, the structure may show the parent alone.

Chain of rat TRPV1 (O35433 whole entry): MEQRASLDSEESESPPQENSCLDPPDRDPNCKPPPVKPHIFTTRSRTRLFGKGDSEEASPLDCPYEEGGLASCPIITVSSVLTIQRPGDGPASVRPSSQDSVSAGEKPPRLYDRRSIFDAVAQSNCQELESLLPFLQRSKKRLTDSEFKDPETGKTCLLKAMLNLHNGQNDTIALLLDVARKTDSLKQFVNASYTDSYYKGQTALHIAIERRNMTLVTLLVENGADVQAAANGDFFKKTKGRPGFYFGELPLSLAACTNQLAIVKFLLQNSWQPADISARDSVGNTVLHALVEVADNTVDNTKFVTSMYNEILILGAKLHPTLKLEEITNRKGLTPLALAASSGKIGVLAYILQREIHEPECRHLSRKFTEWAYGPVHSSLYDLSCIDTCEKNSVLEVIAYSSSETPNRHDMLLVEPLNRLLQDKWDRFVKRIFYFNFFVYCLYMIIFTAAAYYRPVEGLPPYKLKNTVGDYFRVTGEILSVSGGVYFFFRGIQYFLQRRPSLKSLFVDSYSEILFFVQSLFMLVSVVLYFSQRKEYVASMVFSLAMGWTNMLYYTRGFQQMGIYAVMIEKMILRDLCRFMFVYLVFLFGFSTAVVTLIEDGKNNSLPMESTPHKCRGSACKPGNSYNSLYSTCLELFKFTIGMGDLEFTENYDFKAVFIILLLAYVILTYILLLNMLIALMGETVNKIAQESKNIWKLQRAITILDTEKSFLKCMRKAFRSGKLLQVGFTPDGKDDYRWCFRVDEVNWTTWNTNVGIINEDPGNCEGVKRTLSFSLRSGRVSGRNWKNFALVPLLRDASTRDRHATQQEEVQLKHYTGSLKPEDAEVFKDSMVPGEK

The first assay has as its target rat TRPV1 (Rattus norvegicus (Rat), UniProt O35433). To be noted: read-out: Rat IC50.
Take `Cc1nc2ccccc2nc1N1CCc2ncnc(Nc3ccc(C(C)(C)C)cc3)c2CC1` [Example 32, (4-tert-Butyl-phenyl)-[7-(3-methyl-quinoxalin-2-yl)-6,7,8,9-tetrahydro-5H-pyrimido[4,5-d]azepin-4-yl]-amine]: the IC50 came to 13 nM.

In the case of `Cc1nc2ccccc2nc1N1CCc2nc(C(C)C)nc(Nc3ccc(C(C)(C)C)cc3)c2CC1` [Example 33, (4-tert-Butyl-phenyl)-[2-isopropyl-7-(3-methyl-quinoxalin-2-yl)-6,7,8,9-tetrahydro-5H-pyrimido[4,5-d]azepin-4-yl]-amine], the IC50 was 110 nM.

Consider `Cc1nc2ccccc2nc1N1CCc2nc(C(C)C)nc(Nc3ccc(C(F)(F)F)cc3)c2CC1` [Example 34, [2-Isopropyl-7-(3-methyl-quinoxalin-2-yl)-6,7,8,9-tetrahydro-5H-pyrimido-[4,5-d]azepin-4-yl]-(4-trifluoromethyl-phenyl)-amine], for which the IC50 worked out at 360 nM.

Take `CC(C)c1nc2c(c(Nc3ccc(C(F)(F)F)cc3)n1)CCN(c1nc3ccccc3nc1C(F)(F)F)CC2` [Example 35, [2-Isopropyl-7-(3-trifluoromethyl-quinoxalin-2-yl)-6,7,8,9-tetrahydro-5H-pyrimido[4,5-d]azepin-4-yl]-(4-trifluoromethyl-phenyl)-amine]: the IC50 was 2400 nM.

As for `CC(C)c1nc2c(c(Nc3ccc(C(F)(F)F)cc3)n1)CCN(c1ncccc1S(C)(=O)=O)CC2` [Example 36, [2-Isopropyl-7-(3-methanesulfonyl-pyridin-2-yl)-6,7,8,9-tetrahydro-5H-pyrimido[4,5-d]azepin-4-yl]-(4-trifluoromethyl-phenyl)-amine], the IC50 worked out at 370 nM.

Regarding `CC(C)(C)c1ccc(Nc2ncnc3c2CCN(c2nncc4ccccc24)CC3)cc1` [Example 37, (4-tert-Butyl-phenyl)-(7-phthalazin-1-yl-6,7,8,9-tetrahydro-5H-pyrimido-[4,5-d]azepin-4-yl)-amine], the IC50 stood at 150 nM.

`Cc1cncnc1N1CCc2ncnc(Nc3ccc(C(C)(C)C)cc3)c2CC1` [Example 38, (4-tert-Butyl-phenyl)-[7-(5-methyl-pyrimidin-4-yl)-6,7,8,9-tetrahydro-5H-pyrimido[4,5-d]azepin-4-yl]-amine]: the IC50 is 1400 nM.

On to `FC(F)(F)c1ccc(Nc2nc(N3CCCCC3)nc3c2CCN(c2ncccc2C(F)(F)F)CC3)cc1` [Example 39, [2-Piperidin-1-yl-7-(3-trifluoromethyl-pyridin-2-yl)-6,7,8,9-tetrahydro-5H-pyrimido[4,5-d]azepin-4-yl]-(4-trifluoromethyl-phenyl)-amine], for which the IC50 came to 18 nM.

For `FC(F)(F)c1ccc(Nc2nc(N3CCOCC3)nc3c2CCN(c2ncccc2C(F)(F)F)CC3)cc1` [Example 40, [2-Morpholin-4-yl-7-(3-trifluoromethyl-pyridin-2-yl)-6,7,8,9-tetrahydro-5H-pyrimido[4,5-d]azepin-4-yl]-(4-trifluoromethyl-phenyl)-amine], the IC50 turned out to be […].

Consider `FC(F)(F)c1ccc(Nc2nc(N3CCOCC3)nc3c2CCN(c2ncccc2C(F)(F)F)CC3)nc1` [Example 41, [2-Morpholin-4-yl-7-(3-trifluoromethyl-pyridin-2-yl)-6,7,8,9-tetrahydro-5H-pyrimido[4,5-d]azepin-4-yl]-(5-trifluoromethyl-pyridin-2-yl)-amine], for which the IC50 was 49 nM.

For the molecule `CC(C)(C)c1ccc(Nc2nc(N3CCCCC3)nc3c2CCN(c2ncccc2C(F)(F)F)CC3)cc1` [Example 42, (4-tert-Butyl-phenyl)-[2-piperidin-1-yl-7-(3-trifluoromethyl-pyridin-2-yl)-6,7,8,9-tetrahydro-5H-pyrimido[4,5-d]azepin-4-yl]-amine], the IC50 was 49 nM.

Consider `CN(C)c1nc2c(c(Nc3ccc(C(F)(F)F)cn3)n1)CCN(c1ncccc1C(F)(F)F)CC2` [Example 44, N^2,N^2-Dimethyl-N^4-(5-trifluoromethyl-pyridin-2-yl)-7-(3-trifluoro-methyl-pyridin-2-yl)-6,7,8,9-tetrahydro-5H-pyrimido[4,5-d]azepine-2,4-diamine], for which the IC50 was determined as 250 nM.

For `CN(C)c1nc2c(c(Nc3ccc(C(F)(F)F)c(Cl)c3)n1)CCN(c1ncccc1C(F)(F)F)CC2` [Example 45, N^4-(3-Chloro-4-trifluoromethyl-phenyl)-N^2,N^2-dimethyl-7-(3-trifluoro-methyl-pyridin-2-yl)-6,7,8,9-tetrahydro-5H-pyrimido[4,5-d]azepine-2,4-diamine], the IC50 is 90 nM.

On to `CC(C)(C)c1ccc(Nc2nc(N3CCOCC3)nc3c2CCN(c2ncccc2C(F)(F)F)CC3)cc1` [Example 47, (4-tert-Butyl-phenyl)-[2-morpholin-4-yl-7-(3-trifluoromethyl-pyridin-2-yl)-6,7,8,9-tetrahydro-5H-pyrimido[4,5-d]azepin-4-yl]-amine], for which the IC50 was 23 nM.

On to `CN(C)c1nc2c(c(Nc3ccc(C(C)(C)C)cc3)n1)CCN(c1ncccc1C(F)(F)F)CC2` [Example 48, N^4-(4-tert-Butyl-phenyl)-N^2,N^2-dimethyl-7-(3-trifluoromethyl-pyridin-2-yl)-6,7,8,9-tetrahydro-5H-pyrimido[4,5-d]azepine-2,4-diamine], for which the IC50 was 74 nM.

Consider `CN(C)c1nc2c(c(Nc3ccc(C(F)(F)F)cc3)n1)CCN(c1ncccc1C(F)(F)F)CC2` [Example 49, N^2,N^2-Dimethyl-N^4-(4-trifluoromethyl-phenyl)-7-(3-trifluoromethyl-pyridin-2-yl)-6,7,8,9-tetrahydro-5H-pyrimido[4,5-d]azepine-2,4-diamine], for which the 50% inhibitory concentration (IC50) was 240 nM.

On to `CN(C)c1nc2c(c(Nc3ccc(Cl)cc3)n1)CCN(c1ncccc1C(F)(F)F)CC2` [Example 50B, N^4-(4-Chloro-phenyl)-N^2,N^2-dimethyl-7-(3-trifluoromethyl-pyridin-2-yl)-6,7,8,9-tetrahydro-5H-pyrimido[4,5-d]azepine-2,4-diamine trifluoroacetic acid salt], for which the IC50 is 910 nM.

In the case of `Nc1nc2c(c(Nc3ccc(C(F)(F)F)cc3)n1)CCN(c1ncccc1C(F)(F)F)CC2` [Example 51, N^4-(4-Trifluoromethyl-phenyl)-7-(3-trifluoromethyl-pyridin-2-yl)-6,7,8,9-tetrahydro-5H-pyrimido[4,5-d]azepine-2,4-diamine], the IC50 stood at 1200 nM.

For the molecule `CSc1nc2c(c(Nc3ccc(C(F)(F)F)cc3)n1)CCN(c1ncccc1C(F)(F)F)CC2` [Example 52, [2-Methylsulfanyl-7-(3-trifluoromethyl-pyridin-2-yl)-6,7,8,9-tetrahydro-5H-pyrimido[4,5-d]azepin-4-yl]-(4-trifluoromethyl-phenyl)-amine], the IC50 was 53 nM.

Still in this assay, the particulars now being: read-out: Rat IC50; hydrochloride salt.
In the case of `FC(F)(F)c1ccc(Nc2nc(N3CCCCC3)nc3c2CCN(c2ncccc2C(F)(F)F)CC3)cc1` [Example 39A, [2-Piperidin-1-yl-7-(3-trifluoromethyl-pyridin-2-yl)-6,7,8,9-tetrahydro-5H-pyrimido[4,5-d]azepin-4-yl]-(4-trifluoromethyl-phenyl)-amine hydrochloride salt], the IC50 worked out at 23 nM.

For `FC(F)(F)c1ccc(Nc2nc(N3CCOCC3)nc3c2CCN(c2ncccc2C(F)(F)F)CC3)cc1` [Example 40A, [2-Morpholin-4-yl-7-(3-trifluoromethyl-pyridin-2-yl)-6,7,8,9-tetrahydro-5H-pyrimido[4,5-d]azepin-4-yl]-(4-trifluoromethyl-phenyl)-amine hydrochloride salt], the IC50 stood at […].
